The source of these data is PubChem BioAssay (NCI).

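A five-concentration, 48-hour dose response in 96-well plates underlies each endpoint, interpolated linearly between surrounding concentrations. Definition used: TGI = concentration required for complete inhibition of growth.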

Some test systems named below: NCI-H23 lung; SR leukemia; SK-MEL-5 melanoma; HCC-2998 colon; TK-10 renal; SK-MEL-28 melanoma; CAKI-1 renal; HS 578T breast; OVCAR-5 ovarian; SK-MEL-2 melanoma; OVCAR-4 ovarian; NCI/ADR-RES ovarian; CCRF-CEM leukemia.
Common to all, as to experiment: inhibition of tumour cell growth, NCI panel, 48 h

As for `C=CC[C@@]12CCC(=O)C=C1CCCC2=O`, the TGI in the assay on NCI-H23 lung, with SR leukemia, in the assay with SK-MEL-5 melanoma, in the assay on HCC-2998 colon, with TK-10 renal and in the assay on SK-MEL-28 melanoma was above 100 µM in each case. Moreover, the TGI with CAKI-1 renal, in the assay on HS 578T breast, in the assay with OVCAR-5 ovarian, in the assay with SK-MEL-2 melanoma, in the assay with OVCAR-4 ovarian and in the assay with NCI/ADR-RES ovarian was above 100 µM throughout.

For `CCOC(=O)CNC(=O)CNC(=O)CNC(=O)CNNc1c(OCc2ccccc2)c(=O)c1=O`, the TGI in the assay with NCI-H23 lung, in the assay on SK-MEL-5 melanoma, with HCC-2998 colon, in the assay on TK-10 renal, in the assay with SK-MEL-28 melanoma and in the assay on CAKI-1 renal was above 100 µM in each case. The TGI in the assay on HS 578T breast, in the assay on CCRF-CEM leukemia, in the assay on OVCAR-5 ovarian, with SK-MEL-2 melanoma, with OVCAR-4 ovarian and in the assay with NCI/ADR-RES ovarian was above 100 µM throughout.

On to `COC(=O)/C(C#N)=C(/NCc1ccccc1)Nc1ccccc1`, for which the TGI with NCI-H23 lung, in the assay on SR leukemia, with SK-MEL-5 melanoma, with HCC-2998 colon, in the assay on TK-10 renal and in the assay on SK-MEL-28 melanoma was above 100 µM throughout. Besides, the TGI in the assay with CAKI-1 renal, in the assay on HS 578T breast, in the assay on OVCAR-5 ovarian, in the assay on SK-MEL-2 melanoma, in the assay on OVCAR-4 ovarian and in the assay on NCI/ADR-RES ovarian was above 100 µM in each case.

For `Cc1ccc(/C=C2\CCCCCC2=O)cc1`, the TGI with NCI-H23 lung, with SR leukemia, in the assay on SK-MEL-5 melanoma, in the assay with HCC-2998 colon, with TK-10 renal and in the assay on SK-MEL-28 melanoma was above 100 µM each time. The TGI in the assay on CAKI-1 renal, in the assay with HS 578T breast, in the assay with CCRF-CEM leukemia, in the assay on OVCAR-5 ovarian, in the assay on SK-MEL-2 melanoma and in the assay with OVCAR-4 ovarian was above 100 µM each time.

Regarding `O=C(/C=C/c1ccccc1Br)c1ccccc1`, the TGI with NCI-H23 lung was 12.6 µM; with SK-MEL-5 melanoma, 22.6 µM; in the assay on HCC-2998 colon it was 7.68 µM; with TK-10 renal, 9.83 µM; in the assay with SK-MEL-28 melanoma, 15.8 µM; in the assay on CAKI-1 renal, 8.37 µM. Moreover, the TGI was determined as 11.3 µM with HS 578T breast; 3.85 µM in the assay on CCRF-CEM leukemia; 34.2 µM in the assay on OVCAR-5 ovarian; 31.3 µM in the assay on SK-MEL-2 melanoma; 6.03 µM in the assay on OVCAR-4 ovarian; 17.7 µM with NCI/ADR-RES ovarian.

In the case of `CC(C)(C)CN1[C@@H]2CCCC[C@H]2N(CC(C)(C)C)P1(=O)C(O)/C=C/c1ccccc1` (stereo not given in full), the TGI in the assay on NCI-H23 lung was above 100 µM; with SK-MEL-5 melanoma it was 38.9 µM; in the assay on HCC-2998 colon, 92.6 µM; with TK-10 renal, above 100 µM; with SK-MEL-28 melanoma it was above 100 µM; in the assay on CAKI-1 renal, above 100 µM. Further, the TGI was 73.2 µM in the assay with HS 578T breast; above 100 µM in the assay on CCRF-CEM leukemia; above 100 µM with OVCAR-5 ovarian; 93.1 µM in the assay on SK-MEL-2 melanoma; above 100 µM in the assay with OVCAR-4 ovarian; above 100 µM with NCI/ADR-RES ovarian.

With `CCN(CC)c1ccc2cc(-c3csc(C)n3)c(=O)oc2c1`, the TGI in the assay on SR leukemia, in the assay on SK-MEL-5 melanoma, with HCC-2998 colon, with TK-10 renal, with SK-MEL-28 melanoma and in the assay on CAKI-1 renal was above 100 µM throughout. In addition, the TGI with HS 578T breast is 67.5 µM; in the assay on CCRF-CEM leukemia it was above 100 µM; in the assay on OVCAR-5 ovarian, above 100 µM; in the assay with SK-MEL-2 melanoma, above 100 µM; in the assay on OVCAR-4 ovarian it was above 100 µM.

Take `O=C1OC(C2Cc3ccc4c(c3C2=O)CCCC4)c2ccccc21` (stereo not given): the TGI is above 100 µM in the assay with NCI-H23 lung; 84.7 µM in the assay on SK-MEL-5 melanoma; 94.6 µM in the assay on HCC-2998 colon; above 100 µM in the assay on TK-10 renal; above 100 µM with SK-MEL-28 melanoma; above 100 µM in the assay with CAKI-1 renal. Further, the TGI is 82 µM in the assay on HS 578T breast; above 100 µM with CCRF-CEM leukemia; above 100 µM in the assay with OVCAR-5 ovarian; above 100 µM with SK-MEL-2 melanoma; above 100 µM with OVCAR-4 ovarian; above 100 µM in the assay with NCI/ADR-RES ovarian.

With `Brc1ccc(N=Nc2ccc3ccccc3n2)cc1`, the TGI in the assay with NCI-H23 lung is above 100 µM; in the assay on SK-MEL-5 melanoma, above 100 µM; in the assay on TK-10 renal it was 56.6 µM; with CAKI-1 renal, 47 µM; in the assay with HS 578T breast it was 56.6 µM; in the assay on CCRF-CEM leukemia, above 100 µM. For the same compound, the TGI in the assay on OVCAR-5 ovarian, with SK-MEL-2 melanoma and with NCI/ADR-RES ovarian was above 100 µM in each case.

With `COC1=CC(=O)c2c(n[nH]c2CCNC(=O)OCc2ccccc2)C1=O`, the TGI in the assay with NCI-H23 lung came out at 15.5 µM; in the assay with SR leukemia, 65.5 µM; in the assay on SK-MEL-5 melanoma, 13 µM; with HCC-2998 colon it was 39.6 µM; with TK-10 renal, 70.6 µM; in the assay on SK-MEL-28 melanoma, 24.5 µM. The TGI in the assay on HS 578T breast was 69.1 µM; in the assay on OVCAR-5 ovarian, 32.1 µM; in the assay on SK-MEL-2 melanoma it was 23.7 µM; with NCI/ADR-RES ovarian it was above 100 µM.

Consider `CCOC(=O)C(C)c1nc2cc(C(F)(F)F)ccc2[nH]c1=O` (stereo not given), for which the TGI with NCI-H23 lung, in the assay on SK-MEL-5 melanoma, in the assay with HCC-2998 colon, in the assay on TK-10 renal, in the assay with SK-MEL-28 melanoma and in the assay with CAKI-1 renal was above 100 µM in each case. For the same compound, the TGI in the assay with HS 578T breast, with CCRF-CEM leukemia, in the assay on OVCAR-5 ovarian, in the assay on SK-MEL-2 melanoma, in the assay on OVCAR-4 ovarian and in the assay with NCI/ADR-RES ovarian was above 100 µM each time.

For `CC(C)(C)OC(=O)NC(Cc1ccc(OCc2ccccc2)cn1)C(=O)O` (stereo not given), the TGI in the assay with NCI-H23 lung, with SR leukemia, in the assay with SK-MEL-5 melanoma, in the assay with HCC-2998 colon, in the assay on TK-10 renal and in the assay on SK-MEL-28 melanoma was above 100 µM in each case. The TGI with CAKI-1 renal, in the assay on HS 578T breast, with OVCAR-5 ovarian, in the assay on OVCAR-4 ovarian and in the assay on NCI/ADR-RES ovarian was above 100 µM in each case.

Turning to `COC(=O)C1Cc2c([nH]c3ccccc23)-c2[nH]c3ccccc3c2CC(NC(C)=O)C(=O)NCC(=O)NCC(=O)N1` (stereo not given), the TGI in the assay on NCI-H23 lung, in the assay with SK-MEL-5 melanoma, in the assay on TK-10 renal, in the assay with SK-MEL-28 melanoma, in the assay on CAKI-1 renal and in the assay with HS 578T breast was above 100 µM throughout. Also, the TGI in the assay on CCRF-CEM leukemia, with OVCAR-5 ovarian, in the assay on SK-MEL-2 melanoma and in the assay on NCI/ADR-RES ovarian was above 100 µM each time.

For `COc1cccc(N2C(=O)C3c4[nH]c5ccc(C)cc5c4C4CCC(C)CC4C3C2=O)c1` (stereo not given), the TGI in the assay on NCI-H23 lung, in the assay with SK-MEL-5 melanoma, with HCC-2998 colon, with TK-10 renal, with SK-MEL-28 melanoma and in the assay with CAKI-1 renal was above 100 µM each time. Further, the TGI is 64.9 µM in the assay on HS 578T breast; above 100 µM in the assay with CCRF-CEM leukemia; above 100 µM in the assay with OVCAR-5 ovarian; above 100 µM in the assay on SK-MEL-2 melanoma; above 100 µM in the assay with NCI/ADR-RES ovarian.

As to `CC1(Cc2cc3c(cc2C2(c4ccc([N+](=O)[O-])cc4)OCCO2)OCO3)OCCO1`, the TGI with NCI-H23 lung, in the assay with SK-MEL-5 melanoma, with HCC-2998 colon, in the assay with TK-10 renal, in the assay on SK-MEL-28 melanoma and in the assay with CAKI-1 renal was above 100 µM each time. For the same compound, the TGI in the assay on HS 578T breast, in the assay on CCRF-CEM leukemia, in the assay with OVCAR-5 ovarian, in the assay on SK-MEL-2 melanoma, in the assay with OVCAR-4 ovarian and in the assay with NCI/ADR-RES ovarian was above 100 µM in each case.

As for `COC(=O)C1=C(C(=O)OC)C(OO)(c2ccccc2)OC1=O` (stereo not given), the TGI with NCI-H23 lung, with SR leukemia, in the assay on SK-MEL-5 melanoma, in the assay with HCC-2998 colon, in the assay on TK-10 renal and in the assay with SK-MEL-28 melanoma was above 100 µM in each case. Further, the TGI in the assay on CAKI-1 renal, with CCRF-CEM leukemia, in the assay on OVCAR-5 ovarian, with SK-MEL-2 melanoma, in the assay on OVCAR-4 ovarian and with NCI/ADR-RES ovarian was above 100 µM each time.

On to `CN1C(=O)C(C#N)C2C[C@@]1(C)Oc1ccccc12` (stereo not given in full), for which the TGI in the assay with NCI-H23 lung, in the assay on SK-MEL-5 melanoma, with HCC-2998 colon, with TK-10 renal, in the assay with SK-MEL-28 melanoma and in the assay with CAKI-1 renal was above 100 µM each time. The TGI in the assay with HS 578T breast, in the assay with CCRF-CEM leukemia, in the assay on OVCAR-5 ovarian, in the assay with SK-MEL-2 melanoma, with OVCAR-4 ovarian and with NCI/ADR-RES ovarian was above 100 µM in each case.

Turning to `O=c1[nH]c2cc3[nH]c(=O)c(=O)[nH]c3cc2[nH]c1=O`, the TGI in the assay with NCI-H23 lung, in the assay on SK-MEL-5 melanoma, in the assay with HCC-2998 colon, in the assay on TK-10 renal, in the assay on SK-MEL-28 melanoma and in the assay with CAKI-1 renal was above 100 µM throughout. Besides, the TGI with HS 578T breast, in the assay on CCRF-CEM leukemia, with OVCAR-5 ovarian, in the assay with SK-MEL-2 melanoma and in the assay with NCI/ADR-RES ovarian was above 100 µM throughout.
